Assay: xn = mol fraction of the nth substance listed
Details: 101 kPa, Liquid; for viscosity: Capillary tube (Ostwald / Ubbelohde) method; for mass density: Vibrating tube method

CCC(C)=O [butanone] + CCC(C)O
Details | mass density, 298.15 K [kg/m3] | mass density, 303.15 K [kg/m3] | mass density, 308.15 K [kg/m3] | mass density, 313.15 K [kg/m3] | viscosity, 298.15 K [mPa·s] | viscosity, 303.15 K [mPa·s] | viscosity, 308.15 K [mPa·s] | viscosity, 313.15 K [mPa·s]
x1 = 0.0833 | 801.7 | 797.1 | 792.46 | 788.12 | 2.502 | 2.135 | 1.832 | 1.525
x1 = 0.161 | 800.91 | 796.26 | 791.63 | 787.2 | 2.081 | 1.791 | 1.571 | 1.359
x1 = 0.2402 | 800.19 | 795.56 | 790.81 | 786.44 | 1.749 | 1.533 | 1.355 | 1.206
x1 = 0.3498 | 799.4 | 794.77 | 789.93 | 785.56 | 1.428 | 1.284 | 1.143 | 1.018
x1 = 0.441 | 798.92 | 794.27 | 789.42 | 785.03 | 1.213 | 1.078 | 0.976 | 0.895
x1 = 0.5609 | 798.55 | 793.86 | 789.01 | 784.61 | 0.981 | 0.886 | 0.82 | 0.76
x1 = 0.6498 | 798.44 | 793.74 | 788.83 | 784.44 | 0.824 | 0.768 | 0.706 | 0.664
x1 = 0.7398 | 798.47 | 793.74 | 788.83 | 784.43 | 0.671 | 0.638 | 0.603 | 0.572
x1 = 0.8501 | 798.73 | 793.92 | 789.09 | 784.68 | 0.528 | 0.506 | 0.486 | 0.465
x1 = 0.9405 | 799.06 | 794.23 | 789.47 | 785.05 | 0.434 | 0.417 | 0.397 | 0.38
x1 = 1 | 799.48 | 794.63 | 789.9 | 785.52 | 0.381 | 0.368 | 0.352 | 0.339

Reference: the NIST ThermoML archive (doi:10.1016/j.tca.2012.12.008)
